“Also recorded” adds a separate entry of the source.
How the values were obtained:
[1] = target: T1, SARS-CoV-2 M^pro (Severe acute respiratory syndrome coronavirus 2, UniProt P0DTD1); test: Protein-observed M^pro assay (SPE-MS), covalent modification; assay type: binding; details: M^pro 2.0 μM, inhibitor 11 or 33 μM, 45 min
Method: Selected compounds were tested for reaction with M^pro using protein-observed MS to inform on their mechanism of inhibition (Figure 2). Initially, M^pro was incubated with a ∼6-fold excess of the penicillin sulfone ester for 45 min and then analyzed by MS. […] When the inhibitor concentration was increased to ∼17-fold to account for the possibility of modifying all 12 M^pro cysteine or other residues, only low levels of a second covalent M^pro modification by the inhibitors were observed (Figure 2A–C). No evidence for fragmentation of the inhibitors once bound to M^pro was accrued.
Solutions of the inhibitors (100% DMSO) were dry-dispensed across 384-well polypropylene assay plates (Greiner) (for 11 or 33 μM top concentrations) using an ECHO 550 acoustic dispenser (Labcyte). DMSO was used as a negative control. Each reaction was performed in technical duplicates. The enzyme mixture (50 μL/well), containing M^pro (2.0 μM) in buffer (20 mM HEPES, pH 7.5), was dispensed across the penicillin-containing 384-well assay plates with a multidrop dispenser (Thermo Fischer Scientific). The reaction mixture was incubated for 45 min at 20 °C under an ambient atmosphere prior to analysis by SPE-MS.
MS analyses were performed using a RapidFire RF 365 high-throughput sampling robot (Agilent) attached to an iFunnel Agilent 6550 accurate mass Q-TOF mass spectrometer using a C4 cartridge and the same parameters as described above, with the exception of the gas temperature that was reduced to 225 °C. Protein spectra were deconvoluted for the m/z range 850–1350 Da, with a resolution of 2 Da and with a 10–60 kDa cutoff using the MaxEnt1 function in Agilent MassHunter Version 7. The deconvoluted files were extracted as csv files, sorted using Enthought Canopy GUI, and normalized and plotted using GraphPad Prism 9.

[2] = target: T1, SARS-CoV-2 M^pro; test: biochemical; assay type: biochemical; details: for M^pro inhibition, result in words: SPE-MS inhibition assay
[3] = target: T1, SARS-CoV-2 M^pro; test: SPE-MS M^pro inhibition assay, 11mer peptide substrate; assay type: biochemical; details: Table 1; compounds 15, 16: 11mer peptide as substrate; M^pro […], substrate 2.0 μM; read-out: IC50
[4] = Table 1, M^pro […], 37mer substrate 2.0 μM, 15 min preincubation, mean ± SD, n ≥ 2, read-out: IC50
[5] = read-out: IC50 [μM] using SPE-MS (37mer peptide)
[6] = Table S2, M^pro 0.15 μM, 37mer substrate peptide 2.0 μM, mean ± SD, n ≥ 2, read-out: IC50 [μM] using SPE-MS (37mer peptide)
[7] = Table 2, M^pro […], 37mer substrate 2.0 μM, mean ± SD, n ≥ 2, read-out: IC50
[8] = Table 3, M^pro […], 37mer substrate 2.0 μM, mean ± SD, n ≥ 2, read-out: IC50
[9] = Table 4, M^pro 0.15 μM, 37mer substrate 2.0 μM, mean ± SD, n ≥ 2, read-out: IC50

O=c1[nH]sc2ccccc12 [BIT, benzoisothiazolinone, reference compound]
covalent modification of M^pro by protein-observed MS [1]: non-selectively undergoes covalent

CC1(C)S[C@@H]2[C@H](NC(=O)COc3ccccc3)C(=O)N2[C@H]1C(=O)O [Compound 12, penicillin V, reference compound]
IC50 [2, 4]: > 50 µM

CC1(C)S[C@@H]2[C@H](NC(=O)COc3ccccc3)C(=O)N2[C@H]1C(=O)OCc1ccccc1 [Compound 13]
IC50 [2, 4]: > 50 µM

CC1(C)[C@H](C(=O)OCc2ccccc2)N2C(=O)[C@H](NC(=O)COc3ccccc3)[C@H]2[S@@+]1[O-] [Compound 15, (6S)-penicillin V (S)-sulfoxide benzyl ester]
IC50 [3]: > 50 µM

CC1(C)[C@H](C(=O)OCc2ccccc2)N2C(=O)[C@@H](NC(=O)COc3ccccc3)C[C@H]2S1(=O)=O [Compound 17]
covalent modification of M^pro by protein-observed MS [1]: appears to inhibit M^pro via a different mechanism

CC1(C)S[C@@H]2[C@H](NC(=O)COc3ccccc3)C(=O)N2[C@H]1C(=O)OCc1ccccc1F [Compound 19a]
IC50 [2, 5]: 47.7 ± 6.8 µM

CC1(C)S[C@@H]2[C@H](NC(=O)COc3ccccc3)C(=O)N2[C@H]1C(=O)OCc1ccc(F)cc1 [Compound 19c]
IC50 [2, 5]: > 50 µM

CC1(C)S[C@@H]2[C@H](NC(=O)COc3ccccc3)C(=O)N2[C@H]1C(=O)OCc1cc(F)cc(F)c1 [Compound 19d]
IC50 [2, 6]: > 50 µM

CC1(C)S[C@@H]2[C@H](NC(=O)COc3ccccc3)C(=O)N2[C@H]1C(=O)OCc1ccc(F)cc1F [Compound 19e]
IC50 [2, 6]: > 50 µM

CC1(C)S[C@@H]2[C@H](NC(=O)COc3ccccc3)C(=O)N2[C@H]1C(=O)OCc1c(F)cc(F)cc1F [Compound 19g]
IC50 [2, 6]: > 50 µM

COc1ccc(COC(=O)[C@@H]2N3C(=O)[C@@H](NC(=O)COc4ccccc4)[C@H]3SC2(C)C)cc1 [Compound 19k]
IC50 [2, 6]: 45.8 ± 11 µM

CC1(C)[C@H](C(=O)OCc2ccccc2F)N2C(=O)[C@@H](NC(=O)COc3ccccc3)[C@H]2S1(=O)=O [Compound 20a]
IC50 [2, 7]: 5.8 ± 2 µM | covalent modification of M^pro by protein-observed MS [1]: covalent reaction with Cys145

CC1(C)[C@H](C(=O)OCc2cccc(F)c2)N2C(=O)[C@@H](NC(=O)COc3ccccc3)[C@H]2S1(=O)=O [Compound 20b]
IC50 [2, 7]: 9.2 ± 3.7 µM

CC1(C)[C@H](C(=O)OCc2ccc(F)cc2)N2C(=O)[C@@H](NC(=O)COc3ccccc3)[C@H]2S1(=O)=O [Compound 20c]
IC50 [2, 7]: 7.4 ± 2.3 µM | covalent modification of M^pro by protein-observed MS [1]: covalent reaction with Cys145

CC1(C)[C@H](C(=O)OCc2cc(F)c(F)c(F)c2)N2C(=O)[C@@H](NC(=O)COc3ccccc3)[C@H]2S1(=O)=O [Compound 20f]
IC50 [2, 7]: > 50 µM

CC1(C)[C@H](C(=O)OCc2cc(C(F)(F)F)cc(C(F)(F)F)c2)N2C(=O)[C@@H](NC(=O)COc3ccccc3)[C@H]2S1(=O)=O [Compound 20h]
M^pro inhibition, result in words [2]: inhibited M^pro | IC50 [2, 7]: 35.3 ± 2.2 µM

CC1(C)[C@H](C(=O)OCc2cccc([N+](=O)[O-])c2)N2C(=O)[C@@H](NC(=O)COc3ccccc3)[C@H]2S1(=O)=O [Compound 20i]
M^pro inhibition, result in words [2]: inhibited M^pro | IC50 [2, 7]: 13.3 ± 5.3 µM

CC1(C)[C@H](C(=O)OCc2ccc([N+](=O)[O-])cc2)N2C(=O)[C@@H](NC(=O)COc3ccccc3)[C@H]2S1(=O)=O [Compound 20j, penicillin V sulfone para-nitrobenzyl ester]
M^pro inhibition, result in words [2]: do not, at least efficiently, inhibit M^pro | IC50 [2, 7]: > 50 µM

COc1ccc(COC(=O)[C@@H]2N3C(=O)[C@@H](NC(=O)COc4ccccc4)[C@H]3S(=O)(=O)C2(C)C)cc1 [Compound 20k]
M^pro inhibition, result in words [2]: do not, at least efficiently, inhibit M^pro | IC50 [2, 7]: 31.1 ± 13.9 µM

CC1(C)[C@H](C(=O)OCc2ccc3ccccc3c2)N2C(=O)[C@@H](NC(=O)COc3ccccc3)[C@H]2S1(=O)=O [Compound 20l]
M^pro inhibition, result in words [2]: do not, at least efficiently, inhibit M^pro | IC50 [2, 7]: > 50 µM

CC1(C)[C@H](C(=O)OCc2ccc(C(F)(F)F)o2)N2C(=O)[C@@H](NC(=O)COc3ccccc3)[C@H]2S1(=O)=O [Compound 20m]
M^pro inhibition, result in words [2]: inhibit M^pro, albeit with slightly reduced potency compared to 10 | IC50 [2, 7]: 10.2 ± 2.2 µM

Cc1cc(COC(=O)[C@@H]2N3C(=O)[C@@H](NC(=O)COc4ccccc4)[C@H]3S(=O)(=O)C2(C)C)no1 [Compound 20n]
M^pro inhibition, result in words [2]: inhibit M^pro, albeit with slightly reduced potency compared to 10 | IC50 ([2]; Table 2, M^pro 0.15 μM, 37mer substrate 2.0 μM, mean ± SD, n ≥ 2, read-out: IC50): 9 ± 1.3 µM

COC(=O)[C@@H]1N2C(=O)[C@@H](NC(=O)COc3ccccc3)[C@H]2S(=O)(=O)C1(C)C [Compound 20o]
IC50 [2, 7]: 7.9 ± 1.4 µM

CCOC(=O)[C@@H]1N2C(=O)[C@@H](NC(=O)COc3ccccc3)[C@H]2S(=O)(=O)C1(C)C [Compound 20p]
IC50 [2, 7]: 5.2 ± 0.6 µM | covalent modification of M^pro by protein-observed MS [1]: covalent reaction with Cys145

CC1(C)[C@H](C(=O)OCC#N)N2C(=O)[C@@H](NC(=O)COc3ccccc3)[C@H]2S1(=O)=O [Compound 20r]
IC50 [2, 7]: 9.7 ± 3.3 µM

CC1(C)[C@H](C(=O)OCc2ccccc2)N2C(=O)[C@@H](NC(=O)OCc3ccccc3)[C@H]2S1(=O)=O [Compound 25a]
M^pro inhibition, result in words [2]: abolished M^pro inhibition | IC50 [2, 8]: > 50 µM | covalent modification of M^pro by protein-observed MS [1]: do not covalently react with Cys145; also recorded: does not modify M^pro covalently; also recorded: but not 25a

CC1(C)[C@H](C(=O)OCc2ccccc2)N2C(=O)[C@@H](NC(=O)CCc3ccccc3)[C@H]2S1(=O)=O [Compound 25b]
IC50 [2, 8]: 45.7 ± 0.9 µM | covalent modification of M^pro by protein-observed MS [1]: do not covalently react with Cys145

CC1(C)[C@H](C(=O)OCc2ccccc2)N2C(=O)[C@@H](NC(=O)CNC(=O)c3ccccc3)[C@H]2S1(=O)=O [Compound 25d]
IC50 [2, 8]: > 50 µM

CC1(C)[C@H](C(=O)OCc2ccccc2)N2C(=O)[C@@H](NC(=O)CNC(=O)OCc3ccccc3)[C@H]2S1(=O)=O [Compound 25e]
IC50 [2, 8]: > 50 µM

CC(C)C[C@H](NC(=O)OCc1ccccc1)C(=O)N[C@@H]1C(=O)N2[C@@H](C(=O)OCc3ccccc3)C(C)(C)S(=O)(=O)[C@H]12 [Compound 25f]
IC50 [2, 8]: > 50 µM

CC1(C)[C@H](C(=O)OCc2ccccc2)N2C(=O)[C@@H](NC(=O)COc3c(F)c(F)c(F)c(F)c3F)[C@H]2S1(=O)=O [Compound 25h]
M^pro inhibition, result in words [2]: did not alter M^pro inhibition substantially | IC50 [2, 8]: 5.3 ± 3.3 µM

CC(Oc1ccccc1)C(=O)N[C@@H]1C(=O)N2[C@@H](C(=O)OCc3ccccc3)C(C)(C)S(=O)(=O)[C@H]12 (some centres unmarked) [Compound 25i]
M^pro inhibition, result in words [2]: substantially reduced inhibition | IC50 [2, 8]: > 50 µM

CC(Oc1ccccc1)C(=O)N[C@@H]1C(=O)N2[C@@H](C(=O)OCc3ccc(F)cc3)C(C)(C)S(=O)(=O)[C@H]12 (some centres unmarked) [Compound 25j]
M^pro inhibition, result in words [2]: substantially reduced inhibition | IC50 [2, 8]: > 50 µM

CC1(C)[C@H](C(=O)OCc2ccccc2)N2C(=O)[C@@H](NC(=O)COC3CCCCC3)[C@H]2S1(=O)=O [Compound 25m]
covalent modification of M^pro by protein-observed MS [1]: covalent reaction with Cys145

CC1(C)[C@H](C(=O)OCc2ccccc2)N2C(=O)C(Br)(Br)[C@H]2S1(=O)=O [Compound 28, 6,6-dibromopenicillanic acid sulfone benzyl ester]
IC50 [2, 9]: ~0.6 µM | covalent modification of M^pro by protein-observed MS [1]: initial covalent M^pro binding is followed by rapid subsequent reaction to give new species

CC1(C)[C@H](C(=O)OCc2ccc([N+](=O)[O-])cc2)N2C(=O)C(Br)(Br)[C@H]2S1(=O)=O [Compound 31, 6,6-dibromopenicillanic acid sulfone para-nitrobenzyl ester]
covalent modification of M^pro by protein-observed MS [1]: initial covalent M^pro binding is followed by rapid subsequent reaction to give new species

CC1(C)[C@H](C(=O)OCc2ccc([N+](=O)[O-])cc2)N2C(=O)C(Br)(Br)[C@H]2[S+]1[O-] (stereo partly drawn) [Compound 32, 6,6-dibromopenicillaic acid (R)-sulfoxide para-nitrobenzyl ester]
IC50 [2, 9]: ~0.6 µM | covalent modification of M^pro by protein-observed MS [1]: initial covalent M^pro binding is followed by rapid subsequent reaction to give new species

CC1(C)[C@H](C(=O)OCc2ccccc2)N2C(=O)C[C@H]2S1(=O)=O [Compound 34]
IC50 ([2]; Table 4, M^pro […], 37mer substrate 2.0 μM, mean ± SD, n ≥ 2, read-out: IC50): > 50 µM
